Our source for the Ki and IC50 values is patent US10988477B2 (Merck Patent GmbH, priority 2018, dated 2021).

Assay [1] addresses GCN2 kinase (Homo sapiens, UniProt Q9P2K8). The assay can be described thus: GCN2 enzyme inhibition assay (Transcreener ADP2 fluorescence polarization). Format: biochemical. Conditions: 280 μM ATP. The procedure, abridged: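 Inhibition of 4 nM GCN2 was measured with compound up to 8 μM final, ATP 280 μM and (RS)7 peptide 200 μM over a 1 h, 25 °C reaction. ADP FP readout; IC50 and Ki(app) calculated from percent inhibition.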

For assay [2], the target named is intracellular GCN2 (phosphorylation of the GCN2 substrate eIF2α) (Homo sapiens, UniProt Q9P2K8). Briefly: GCN2 cellular inhibition assay (AlphaScreen SureFire P-eIF2α Ser51, borrelidin-treated U2OS cells). Format: cell-based. The procedure, abridged: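 Phospho-eIF2α (Ser51) in lysates was quantified by AlphaScreen SureFire after a 1 h, 37 °C treatment of U2OS cells with 10 μM borrelidin and compound at 4-fold dilutions starting from 40 μM final. Inhibition expressed in percent against wells stimulated by borrelidin alone.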
A general note: Bead proximity is the source of the signal in Alpha formats.

Setting [3] is: compounds of Formula II, 4 nM GCN2 kinase.
The mark [4] stands for this setting: compounds of Formula II, biomarker assay, phosphorylated eIF2α Ser51 in borrelidin-treated U2OS cells.
Where [5] appears, read: Enzyme activity for compounds of Formula IV, Ki(app), 25° C.
Where [6] appears, read: compounds of Formula IV, biomarker assay, phosphorylated eIF2α Ser51 in borrelidin-treated U2OS cells.

Read-outs that look alike come from different tables or passages of the source. Bounds are passed on as bounds.

The IC50 is the point on the concentration scale where inhibition reaches its midpoint.

Chain of GCN2 kinase (Q9P2K8 whole entry): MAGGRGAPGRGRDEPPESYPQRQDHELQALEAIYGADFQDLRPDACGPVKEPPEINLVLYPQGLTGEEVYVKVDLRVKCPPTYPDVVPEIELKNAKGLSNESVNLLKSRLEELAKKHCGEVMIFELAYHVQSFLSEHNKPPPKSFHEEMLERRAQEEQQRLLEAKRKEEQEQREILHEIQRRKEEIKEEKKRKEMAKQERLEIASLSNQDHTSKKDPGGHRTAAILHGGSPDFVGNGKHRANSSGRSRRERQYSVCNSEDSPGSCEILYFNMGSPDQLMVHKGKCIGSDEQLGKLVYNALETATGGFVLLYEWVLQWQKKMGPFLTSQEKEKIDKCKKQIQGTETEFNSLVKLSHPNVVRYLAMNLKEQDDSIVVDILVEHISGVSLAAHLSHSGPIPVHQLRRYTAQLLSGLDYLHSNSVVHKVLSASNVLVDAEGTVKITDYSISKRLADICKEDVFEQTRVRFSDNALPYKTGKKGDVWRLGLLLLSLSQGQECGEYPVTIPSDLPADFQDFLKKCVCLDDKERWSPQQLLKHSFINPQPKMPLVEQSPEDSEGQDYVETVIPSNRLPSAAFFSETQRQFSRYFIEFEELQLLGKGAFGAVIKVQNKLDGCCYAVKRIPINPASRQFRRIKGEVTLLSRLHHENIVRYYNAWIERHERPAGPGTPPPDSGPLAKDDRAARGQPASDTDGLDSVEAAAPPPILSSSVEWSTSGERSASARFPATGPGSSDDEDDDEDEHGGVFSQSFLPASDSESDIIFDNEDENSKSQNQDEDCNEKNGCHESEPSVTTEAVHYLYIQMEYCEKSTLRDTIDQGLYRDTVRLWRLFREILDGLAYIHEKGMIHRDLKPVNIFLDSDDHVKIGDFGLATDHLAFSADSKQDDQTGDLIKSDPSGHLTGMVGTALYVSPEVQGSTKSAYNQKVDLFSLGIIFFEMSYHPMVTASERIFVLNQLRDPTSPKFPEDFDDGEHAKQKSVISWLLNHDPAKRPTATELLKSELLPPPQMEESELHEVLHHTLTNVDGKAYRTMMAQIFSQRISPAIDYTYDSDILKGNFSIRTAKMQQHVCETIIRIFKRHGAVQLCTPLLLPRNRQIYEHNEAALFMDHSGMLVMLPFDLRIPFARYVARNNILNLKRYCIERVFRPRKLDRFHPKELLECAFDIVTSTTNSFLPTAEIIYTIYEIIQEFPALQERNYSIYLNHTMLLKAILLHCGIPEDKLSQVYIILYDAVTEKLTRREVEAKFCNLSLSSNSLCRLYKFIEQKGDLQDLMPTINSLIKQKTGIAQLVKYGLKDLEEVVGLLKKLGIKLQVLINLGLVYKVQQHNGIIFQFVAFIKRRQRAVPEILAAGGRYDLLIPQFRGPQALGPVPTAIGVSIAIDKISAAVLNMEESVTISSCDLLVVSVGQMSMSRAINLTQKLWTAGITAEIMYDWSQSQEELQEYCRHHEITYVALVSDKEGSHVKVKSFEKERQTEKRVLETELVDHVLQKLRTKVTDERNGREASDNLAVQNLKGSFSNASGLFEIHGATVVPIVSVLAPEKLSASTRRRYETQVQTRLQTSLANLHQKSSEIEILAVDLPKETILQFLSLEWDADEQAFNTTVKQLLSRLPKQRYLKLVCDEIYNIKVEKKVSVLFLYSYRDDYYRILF
Chain of intracellular GCN2 (phosphorylation of the GCN2 substrate eIF2α) (Q9P2K8 whole entry): as above

`CN(C1CCCN(c2cc(-c3cnc4ccc(C(F)F)nn34)ncn2)C1)S(C)(=O)=O` (stereo not shown) [II-455, N-(1-(6-(6-(Difluoromethyl)imidazo[1,2-b]pyridazin-3-yl)pyrimidin-4-yl)piperidin-3-yl)-N-methylmethanesulfonamide]: the Ki in assay [1] (setting [3]) was 0.01 to 1 µM. Moreover, the half-inhibitory concentration (IC50) in assay [2] (setting [4]) was 0.5 to 5 µM.

Compound `C[C@H]1CN(c2ccnc(-c3cnc4cnc(C(F)F)cn34)n2)C[C@@H](CNS(C)(=O)=O)C1(F)F` [IV-21, N-(((3S,5S)-1-(2-(6-(Difluoromethyl)imidazo[1,2-a]pyrazin-3-yl)pyrimidin-4-yl)-4,4-difluoro-5-methylpiperidin-3-yl)methyl)methanesulfonamide] showed a Ki in assay [1] (setting [5]) of 0.1 to 1 µM. This compound came in with an IC50 in assay [2] (setting [6]) greater than 5 µM.

`CS(=O)(=O)NCC1CN(c2cc(-c3cnc4ccc(C(F)F)nn34)ncn2)CCC1(F)F` (single isomer, unassigned) [II-1, N-((1-(6-(6-(Difluoromethyl)imidazo[1,2-b]pyridazin-3-yl)pyrimidin-4-yl)-4,4-difluoropiperidin-3-yl)methyl)methanesulfonamide] yielded a Ki in assay [1] (setting [3]) of 0.01 to 1 µM. In addition, in assay [2] (setting [4]), the 50% inhibitory concentration (IC50) lay within 0.5 to 5 µM.

Compound `CC(=O)N1CCN(c2cc(-c3cnc4ccc(Cl)nn34)ccn2)CC1` [II-208, 1-(4-(4-(6-Chloroimidazo[1,2-b]pyridazin-3-yl)pyridin-2-yl)piperazin-1-yl)ethanone] had a Ki in assay [1] (setting [3]) of 0.01 to 1 µM. The same compound displayed an IC50 in assay [2] (setting [4]) greater than 5 µM.

As for `Cc1cc(N2CC(C)NC(c3cn[nH]c3)C2C)nc(-c2cnc3cnc(C(F)(F)F)cn23)n1` (single isomer, unassigned) [IV-670, 3-(4-(2,5-Dimethyl-3-(1H-pyrazol-4-yl)piperazin-1-yl)-6-methylpyrimidin-2-yl)-6-(trifluoromethyl)imidazo[1,2-a]pyrazine], the Ki in assay [1] (setting [5]) is less than 0.01 µM. This compound displayed a concentration for half-maximal inhibition (IC50) in assay [2] (setting [6]) of 0.5 to 5 µM.

Turning to `CC1CN(c2cc(-c3cnc4ccc(C(F)F)nn34)ncn2)CC(CNS(C)(=O)=O)N1C` (stereo not shown) [II-418, N-((4-(6-(6-(Difluoromethyl)imidazo[1,2-b]pyridazin-3-yl)pyrimidin-4-yl)-1,6-dimethylpiperazin-2-yl)methyl)methanesulfonamide], in assay [1] (setting [3]), the Ki was in the range of 0.01 to 1 µM. Besides, in assay [2] (setting [4]), the IC50 was in the range of 0.5 to 5 µM.

Regarding `CCc1ccc2ncc(-c3cc(N4CCO[C@H](CNS(C)(=O)=O)C4)ncn3)n2n1` [II-196, (S)—N-((4-(6-(6-Ethylimidazo[1,2-b]pyridazin-3-yl)pyrimidin-4-yl)morpholin-2-yl)methyl)methanesulfonamide], the Ki in assay [1] (setting [3]) lay within 0.01 to 1 µM. For the same compound, the half-maximal inhibitory concentration (IC50) in assay [2] (setting [4]) was greater than 5 µM.

On to `CC(C)(O)C1CC(c2cn[nH]c2)CN(c2ccnc(-c3cnc4cnc(C(F)(F)F)cn34)n2)C1` (single isomer, unassigned) [IV-685, 2-(5-(1H-Pyrazol-4-yl)-1-(2-(6-(trifluoromethyl)imidazo[1,2-a]pyrazin-3-yl)pyrimidin-4-yl)piperidin-3-yl)propan-2-ol], for which the Ki in assay [1] (setting [5]) is less than 0.01 µM. For the same compound, the concentration for half-maximal inhibition (IC50) in assay [2] (setting [6]) is less than 0.5 µM.

In assay [1] (setting [3]), `C[C@@H]1CCCCN1c1cc(-c2cnc3ccc(C(F)F)nn23)ncn1` [II-354, (R)-6-(Difluoromethyl)-3-(6-(2-methylpiperidin-1-yl)pyrimidin-4-yl)imidazo[1,2-b]pyridazine] had a Ki of 0.01 to 1 µM. In assay [2] (setting [4]), this compound returned an IC50 greater than 5 µM.

For `CP(C)(=O)C1CC(c2cn[nH]c2)CN(c2ccnc(-c3cnc4sc(C(F)(F)F)cn34)n2)C1` (racemic) [Compound V-5, 5-[4-[3-Dimethylphosphoryl-5-(1H-pyrazol-4-yl)-1-piperidyl]pyrimidin-2-yl]-2-(trifluoromethyl)imidazo[2,1-b]thiazole], the Ki in assay [1] (compounds of Formula V, 4 nM GCN2 kinase) was in the range of 0.01 to 0.1 µM. Moreover, the half-maximal inhibitory concentration (IC50) in assay [2] (compounds of Formula V, U2OS cells, 10 μM borrelidin, 1 h, read-out: GCN2 Biomarker (IC50)) was greater than 5 µM.

As for `CC1CCC(CNS(C)(=O)=O)C(C)N1c1cc(-c2cnc3ccc(C(F)F)nn23)ncn1` (stereo not shown) [II-268, N-((1-(6-(6-(Difluoromethyl)imidazo[1,2-b]pyridazin-3-yl)pyrimidin-4-yl)-2,6-dimethylpiperidin-3-yl)methyl)methanesulfonamide], the Ki in assay [1] (setting [3]) was less than 0.01 µM. This compound had an IC50 in assay [2] (setting [4]) of less than 0.5 µM.

In assay [1] (setting [3]), `NS(=O)(=O)N1CC2OCCN(c3cc(-c4cnc5ccc(C(F)F)nn45)ncn3)C2C1` (stereo not shown) [II-332, 4-(6-(6-(Difluoromethyl)imidazo[1,2-b]pyridazin-3-yl)pyrimidin-4-yl)hexahydropyrrolo[3,4-b][1,4]oxazine-6(2H)-sulfonamide] yielded a Ki of 0.01 to 1 µM. Besides, in assay [2] (setting [4]), the half-inhibitory concentration (IC50) was greater than 5 µM.

The compound `CC1CN(c2ccnc(-c3cnc4cnc(C(F)(F)F)cn34)n2)C(C)C(c2cnn(C)c2)N1` (stereo not shown) [IV-687, 3-(4-(2,5-Dimethyl-3-(1-methyl-1H-pyrazol-4-yl)piperazin-1-yl)pyrimidin-2-yl)-6-(trifluoromethyl)imidazo[1,2-a]pyrazine] had a Ki in assay [1] (setting [5]) of 0.1 to 1 µM. Further, the IC50 in assay [2] (setting [6]) lay within 0.5 to 5 µM.

With `CC1CN(c2nccc(-c3cnc4cnc(C(F)(F)F)cn34)n2)CC(c2cn[nH]c2)O1` (single isomer, unassigned) [IV-201, 2-Methyl-6-(1H-pyrazol-4-yl)-4-(4-(6-(trifluoromethyl)imidazo[1,2-a]pyrazin-3-yl)pyrimidin-2-yl)morpholine], the Ki in assay [1] (setting [5]) was less than 0.01 µM. Moreover, the IC50 in assay [2] (setting [6]) is less than 0.5 µM.

`O=C1NCC2CN(c3cc(-c4cnc5ccc(C(F)F)nn45)ccn3)CCN12` (stereo not shown) [II-172, 7-(4-(6-(Difluoromethyl)imidazo[1,2-b]pyridazin-3-yl)pyridin-2-yl)hexahydroimidazo[1,5-a]pyrazin-3(2H)-one]: in assay [1] (setting [3]), the Ki lay in the range of 0.01 to 1 µM. The IC50 in assay [2] (setting [4]) lay within 0.5 to 5 µM.

In assay [1] (setting [3]), `CN(C[C@@H]1CN(c2cc(-c3cnc4ccc(C(F)F)nn34)ncn2)CCO1)S(C)(=O)=O` [II-290, (S)—N-((4-(6-(6-(Difluoromethyl)imidazo[1,2-b]pyridazin-3-yl)pyrimidin-4-yl)morpholin-2-yl)methyl)-N-methylmethanesulfonamide] had a Ki of 0.01 to 1 µM. The same compound yielded an IC50 in assay [2] (setting [4]) of 0.5 to 5 µM.

For the compound `CC1C(NS(C)(=O)=O)CCCN1c1cc(-c2cnc3ccc(C(F)F)nn23)ncn1` (stereo not shown) [II-602, N-(1-(6-(6-(Difluoromethyl)imidazo[1,2-b]pyridazin-3-yl)pyrimidin-4-yl)-2-methylpiperidin-3-yl)methanesulfonamide], in assay [1] (setting [3]), the Ki is less than 0.01 µM. In addition, in assay [2] (setting [4]), the half-maximal inhibitory concentration (IC50) is less than 0.5 µM.

`CC1CN(c2cncc(-c3cnc4cnc(C(F)(F)F)cn34)n2)C(C)C(c2cn[nH]c2)N1` (stereo not shown) [IV-577, 3-(6-(2,5-Dimethyl-3-(1H-pyrazol-4-yl)piperazin-1-yl)pyrazin-2-yl)-6-(trifluoromethyl)imidazo[1,2-a]pyrazine] returned a Ki in assay [1] (setting [5]) of less than 0.01 µM. The compound also came in with a concentration for half-maximal inhibition (IC50) in assay [2] (setting [6]) of 0.5 to 5 µM.

In the case of `CS(=O)(=O)NCC1CCCN(c2cc(-c3cnc4ccc(C(F)F)nn34)c(F)cn2)C1` (stereo not shown) [II-729, N-((1-(4-(6-(Difluoromethyl)imidazo[1,2-b]pyridazin-3-yl)-5-fluoropyridin-2-yl)piperidin-3-yl)methyl)methanesulfonamide], the Ki in assay [1] (setting [3]) was less than 0.01 µM. For the same compound, in assay [2] (setting [4]), the IC50 fell in the range of 0.5 to 5 µM.

The compound `CC(NS(C)(=O)=O)C1CN(c2cc(-c3cnc4ccc(C(F)F)nn34)ccn2)CCO1` (stereo not shown) [II-106, N-(1-(4-(4-(6-(Difluoromethyl)imidazo[1,2-b]pyridazin-3-yl)pyridin-2-yl)morpholin-2-yl)ethyl)methanesulfonamide] showed a Ki in assay [1] (setting [3]) of less than 0.01 µM. The compound further yielded an IC50 in assay [2] (setting [4]) of 0.5 to 5 µM.

On to `CNc1cc(N2CCCC(CNS(C)(=O)=O)C2)cc(-c2cnc3ccc(C(F)F)nn23)n1` (stereo not shown) [II-60, N-((1-(2-(6-(Difluoromethyl)imidazo[1,2-b]pyridazin-3-yl)-6-(methylamino)pyridin-4-yl)piperidin-3-yl)methyl)methanesulfonamide], for which the Ki in assay [1] (setting [3]) is less than 0.01 µM. In addition, the IC50 in assay [2] (setting [4]) was less than 0.5 µM.

Consider `CS(=O)(=O)N1CCC2(CCN(c3cc(-c4cnc5ccc(C(F)F)nn45)ncn3)C2)CC1` [II-54, 2-(6-(6-(Difluoromethyl)imidazo[1,2-b]pyridazin-3-yl)pyrimidin-4-yl)-8-(methylsulfonyl)-2,8-diazaspiro[4.5]decane], for which the Ki in assay [1] (setting [3]) fell in the range of 0.01 to 1 µM. Besides, in assay [2] (setting [4]), the IC50 is 0.5 to 5 µM.

Compound `CC1C(CNS(C)(=O)=O)C(F)(F)C(C)CN1c1cc(-c2cnc3ccc(C(F)F)nn23)ncn1` (single isomer, unassigned) [II-471, N-((1-(6-(6-(Difluoromethyl)imidazo[1,2-b]pyridazin-3-yl)pyrimidin-4-yl)-4,4-difluoro-2,5-dimethylpiperidin-3-yl)methyl)methanesulfonamide] registered a Ki in assay [1] (setting [3]) of 0.01 to 1 µM. In assay [2] (setting [4]), the IC50 is greater than 5 µM.

Turning to `O=S(=O)(N[C@H]1CCCN(c2cc(-c3cnc4ccc(C(F)F)nn34)ncn2)C1)C1CC1` [II-442, (S)—N-(1-(6-(6-(Difluoromethyl)imidazo[1,2-b]pyridazin-3-yl)pyrimidin-4-yl)piperidin-3-yl)cyclopropanesulfonamide], the Ki in assay [1] (setting [3]) fell in the range of 0.01 to 1 µM. Also, in assay [2] (setting [4]), the IC50 is greater than 5 µM.

`Cc1n[nH]c(C)c1C1CN(c2ccnc(-c3cnc4cnc(C(F)(F)F)cn34)n2)CC(C)N1` (single isomer, unassigned) [IV-465, 3-(4-(3-(3,5-Dimethyl-1H-pyrazol-4-yl)-5-methylpiperazin-1-yl)pyrimidin-2-yl)-6-(trifluoromethyl)imidazo[1,2-a]pyrazine] returned a Ki in assay [1] (setting [5]) of 0.01 to 0.1 µM. The half-maximal inhibitory concentration (IC50) in assay [2] (setting [6]) was in the range of 0.5 to 5 µM.

`NC(=O)C1CCN(c2ccnc(-c3cnc4cnc(C(F)F)cn34)n2)C1` (stereo not shown) [IV-63, 1-(2-(6-(Difluoromethyl)imidazo[1,2-a]pyrazin-3-yl)pyrimidin-4-yl)pyrrolidine-3-carboxamide] displayed a Ki in assay [1] (setting [5]) of 0.1 to 1 µM. Besides, in assay [2] (setting [6]), the IC50 was greater than 5 µM.
